Data published in patent US20190060249A1 (priority 2017, published 2019).

Tests used:
ALDH1A1 = target: T1, ALDH1A1 (Homo sapiens, UniProt P00352); experiment: ALDH enzymatic assay, recombinant ALDH1A1; assay type: biochemical; conditions: 5 μg/ml recombinant enzyme, 10 mM acetaldehyde, 20 μM Alda-341
T1 sequence (P00352 1-501): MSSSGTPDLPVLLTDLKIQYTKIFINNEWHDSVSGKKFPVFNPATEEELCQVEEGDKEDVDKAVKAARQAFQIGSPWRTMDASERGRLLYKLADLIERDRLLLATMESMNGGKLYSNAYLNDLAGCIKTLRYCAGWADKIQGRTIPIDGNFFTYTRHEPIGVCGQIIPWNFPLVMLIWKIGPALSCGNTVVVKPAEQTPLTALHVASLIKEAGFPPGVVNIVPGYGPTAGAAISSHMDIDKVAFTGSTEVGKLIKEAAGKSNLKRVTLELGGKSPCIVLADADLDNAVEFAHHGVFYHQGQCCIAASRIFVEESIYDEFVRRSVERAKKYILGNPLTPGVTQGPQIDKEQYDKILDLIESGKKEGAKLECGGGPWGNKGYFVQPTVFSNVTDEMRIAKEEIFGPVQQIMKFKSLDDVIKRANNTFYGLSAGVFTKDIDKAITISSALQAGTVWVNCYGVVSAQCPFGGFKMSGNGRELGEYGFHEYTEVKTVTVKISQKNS
Description: (§1) ALDH enzymatic assay: ALDH1A1, ALDH1A2, 2, 3A1, 3A2, 4A1, 5A1, 7A1 were measured as previously described using 5 μg/ml of recombinant protein (Chen, C. H., Cruz, L. A., and Mochly-Rosen, D. (2015) Pharmacological recruitment of aldehyde dehydrogenase 3A1 (ALDH3A1) to assist ALDH2 in acetaldehyde and ethanol metabolism in vivo. Proceedings of the National Academy of Sciences of the United States of America 112, 3074-3079). […] Assays were conducted in 50 mM NaPPi buffer (pH 7.4) in the presence of 2.5 mM NAD^+ and 10 mM substrate and measured in triplicate at 25° C. Dose response curve fits and EC50's were calculated using GraphPad Prism 7 software.

[1] = tested on: SSC90 (HPV-positive) head and neck squamous cell carcinoma cell line; experiment: Xenograft study, SSC90; assay type: in vivo, SCID mice; conditions: Alda-341 from one week ahead of irradiation, during and post; 30 Gy over 5 fractions
Description: Xenograft study: Six-week old SCID mice were purchased from the Jackson laboratory and five mice per group were used. SCC90 and SAS cells (2×10^6 cells/injection) were implanted into both flanks of each mouse. Alda-341 treated one week ahead of irradiation and continued during and post radiation. Total 30 Gy over 5 fractions in a week was delivered to the tumor with the rest of the body shielded. Tumor size was measured every 1-2 days. Tumor volume was calculated by the formula (π×length×width×height)/6.

ALDH4A1 = target: T2, ALDH4A1 (Homo sapiens, UniProt P30038); experiment: ALDH enzymatic assay, recombinant ALDH4A1; assay type: biochemical; conditions: 5 μg/ml recombinant enzyme, 10 mM acetaldehyde, 20 μM Alda-341
T2 sequence (P30038 25-563): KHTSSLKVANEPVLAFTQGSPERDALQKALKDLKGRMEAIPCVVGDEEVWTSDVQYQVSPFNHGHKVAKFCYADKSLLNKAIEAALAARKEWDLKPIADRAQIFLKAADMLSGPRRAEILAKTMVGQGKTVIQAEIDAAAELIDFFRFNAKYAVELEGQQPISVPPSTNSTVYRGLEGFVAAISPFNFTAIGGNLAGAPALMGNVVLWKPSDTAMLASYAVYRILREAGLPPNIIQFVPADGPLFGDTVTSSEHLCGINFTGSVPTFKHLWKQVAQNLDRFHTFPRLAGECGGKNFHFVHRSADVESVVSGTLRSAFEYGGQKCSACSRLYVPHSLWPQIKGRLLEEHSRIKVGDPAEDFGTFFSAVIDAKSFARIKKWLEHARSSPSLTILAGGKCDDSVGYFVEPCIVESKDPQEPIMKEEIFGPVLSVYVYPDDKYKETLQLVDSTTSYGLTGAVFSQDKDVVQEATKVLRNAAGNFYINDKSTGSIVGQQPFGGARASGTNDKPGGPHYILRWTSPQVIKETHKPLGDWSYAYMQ
Description: as §1

[2] = tested on: murine WT EpCAM+/CD24+-sorted cells; experiment: Annexin V assay; assay type: cell-based, mouse; conditions: 100 μM Alda-341; Annexin V and propidium iodide, FACS
Description: Annexin V^+PI^+ are interpreted as late apoptotic cells and appear in the upper right quadrant. 5-6 replicates per group.
Cells were dissociated from matrigel, stained with Biolegend's FITC Annexin V Apoptosis Detection Kit with Propidium Iodide ([…]), and analyzed by flow cytometry. Annexin V^+PI^− cells were analyzed as early apoptotic cells and Annexin V^+PI^+ cells were analyzed as late apoptotic cells. Five to six replicates per group were assayed.

## C=C(C)[C@H]1CC=C(C)CC1 [Alda-341, D-limonene]
ALDH1A1
  catalytic activity of ALDH1A1: did not increase
[1]
  tumor growth and protection of tumors from radiation, SSC90 xenograft: did not increase tumor growth or protect tumors from radiation
ALDH4A1
  catalytic activity of ALDH4A1: did not increase
[2]
  fewer early and late apoptotic cells compared to vehicle control: about 60%
